{"source": "patent US6645918B1", "about": "“N-([1,2,4]triazoloazinyl)thiophenesulfonamide compounds and their use as herbicides” (Dow AgroSciences LLC, priority 2000, dated 2003)", "format_in_all_cases": "in vivo", "key": {"viola (Viola tricolor)": {"test_system": "viola (Viola tricolor)", "test": "Postemergence herbicidal activity, viola", "details": "foliar spray, visual after 2 weeks, 0 no injury, 100 complete kill", "protocol": "(§1) Seeds of the desired test plant species were planted in Grace-Sierra MetroMix® 306 planting mixture, which typically has a pH of 6.0 to 6.8 and an organic matter content of about 30 percent, in plastic pots with a surface area of 64 square centimeters. When required to ensure good germination and healthy plants, a fungicide treatment and/or other chemical or physical treatment was applied. The plants were grown for 7-21 days in a greenhouse with an approximately 15 hr photoperiod which was maintained at about 23-29° C. during the day and 22-28° C. during the night. Nutrients and water were added on a regular basis and supplemental lighting was provided with overhead metal halide 1000 Watt lamps as necessary. The plants were employed for testing when they reached the first or second true leaf stage. A weighed amount of each test compound, determined by the highest rate to be tested, was placed in a 20 mL glass vial and was dissolved in 4 mL of a 97:3 v/v (volume/volume) mixture of acetone and dimethyl sulfoxide to obtain concentrated stock solutions. […] The concentrated stock solutions obtained were diluted with an aqueous mixture containing acetone, water, iso-propyl alcohol, dimethyl sulfoxide, Atplus 411F crop oil concentrate, and Triton X-155 surfactant (methylenebisdiamyl phenoxy polyethoxy ethanol) in a 48.5:39:10:1.5:1.0:0.02 v/v ratio to obtain spray solutions of known concentration. The solutions containing the highest concentration to be tested were prepared by diluting 2 mL aliquots of the stock solution with 13 mL of the mixture and lower concentrations were prepared by dilution of appropriate smaller portions of the stock solution. Approximately 1.5 mL aliquots of each solution of known concentration were sprayed evenly onto each of the test plant pots using a DeVilbiss atomizer driven by compressed air pressure of 2 to 4 psi (140 to 280 kilopascals) to obtain thorough coverage of each plant. Control plants were sprayed in the same manner with the aqueous mixture. In this test an application rate of 1 ppm results in the application of approximately 1 g/ha. The treated plants and control plants were placed in a greenhouse as described above and watered by sub-irrigation to prevent wash-off of the test compounds. After 2 weeks the condition of the test plants as compared with that of the untreated plants was determined visually and scored on a scale of 0 to 100 percent where 0 corresponds to no injury and 100 corresponds to complete kill."}, "[1]": {"test_system": "Rox orange sorghum (Sorghum bicolor)", "test": "Preemergence herbicidal activity, Rox orange sorghum", "details": "soil spray, visual after 3 weeks, 0 no injury, 100 complete kill or no germination", "protocol": "(§2) The soil matrix was contained in plastic pots with a surface area of 161 square centimeters. When required to ensure good germination and healthy plants, a fungicide treatment and/or other chemical or physical treatment was applied. A weighed amount, determined by the highest rate to be tested, of each test compound was placed in a 20 mL glass vial and was dissolved in 8 mL of a 97:3 v/v (volume/volume) mixture of acetone and dimethyl sulfoxide to obtain concentrated stock solutions. […] The stock solutions obtained were diluted with a 99.9:0.1 mixture of water and Tween® 155 surfactant (ethoxylated sorbitan fatty acid ester) to obtain application solutions of known concentration. The solutions containing the highest concentration to be tested were prepared by diluting 4 mL aliquots of the stock solution with 8.5 mL of the mixture and lower concentrations were prepared by dilution of appropriate smaller portions of the stock solution. A 2.5 mL aliquot of each solution of known concentration was sprayed evenly onto the soil of each seeded pot using a Cornwall 5.0 mL glass syringe fitted with a TeeJet TN-3 hollow cone nozzle to obtain thorough coverage of the soil in each pot. Control pots were sprayed in the same manner with the aqueous mixture. A highest application rate of 4.48 kg/ha is achieved when 50 mg of test compound is employed. The treated pots and control pots were placed in a greenhouse with an approximately 15 hr photoperiod which was maintained at about 23-29° C. during the day and 22-28° C. during the night. Nutrients and water were added on a regular basis and supplemental lighting was provided with overhead metal halide 1000 Watt lamps as necessary. The water was added by top-irrigation. After 3 weeks the condition of the test plants that germinated and grew as compared with that of the untreated plants that germinated and grew was determined visually and scored on a scale of 0 to 100 percent where 0 corresponds to no injury and 100 corresponds to complete kill or no germination."}, "wild oats (Avena fatua) [2]": {"test_system": "wild oats (Avena fatua)", "test": "Preemergence herbicidal activity, wild oats", "details": "soil spray, visual after 3 weeks, 0 no injury, 100 complete kill or no germination", "protocol": "as §2"}, "[3]": {"test_system": "chickweed (Stellaria media)", "test": "Postemergence herbicidal activity, chickweed", "details": "foliar spray, visual after 2 weeks, 0 no injury, 100 complete kill", "protocol": "as §1"}, "[4]": {"test_system": "giant foxtail (Setaria faberi)", "test": "Postemergence herbicidal activity, giant foxtail", "details": "foliar spray, visual after 2 weeks, 0 no injury, 100 complete kill", "protocol": "as §1"}, "[5]": {"test_system": "wild poinsettia (Euphorbia heterophylla)", "test": "Preemergence herbicidal activity, wild poinsettia", "details": "soil spray, visual after 3 weeks, 0 no injury, 100 complete kill or no germination", "protocol": "as §2"}, "[6]": {"test_system": "morningglory (Ipomoea hederacea)", "test": "Preemergence herbicidal activity, morningglory", "details": "soil spray, visual after 3 weeks, 0 no injury, 100 complete kill or no germination", "protocol": "as §2"}, "[7]": {"test_system": "cocklebur (Xanthium strumarium)", "test": "Postemergence herbicidal activity, cocklebur", "details": "foliar spray, visual after 2 weeks, 0 no injury, 100 complete kill", "protocol": "as §1"}, "[8]": {"test_system": "velvetleaf (Abutilion theophrasti)", "test": "Preemergence herbicidal activity, velvetleaf", "details": "soil spray, visual after 3 weeks, 0 no injury, 100 complete kill or no germination", "protocol": "as §2"}, "[9]": {"test_system": "Rox orange sorghum (Sorghum bicolor)", "test": "Postemergence herbicidal activity, Rox orange sorghum", "details": "foliar spray, visual after 2 weeks, 0 no injury, 100 complete kill", "protocol": "as §1"}, "[10]": {"test_system": "pigweed (Amaranthus retroflexus)", "test": "Preemergence herbicidal activity, pigweed", "details": "soil spray, visual after 3 weeks, 0 no injury, 100 complete kill or no germination", "protocol": "as §2"}, "[11]": {"test_system": "morningglory (Ipomoea hederacea)", "test": "Postemergence herbicidal activity, morningglory", "details": "foliar spray, visual after 2 weeks, 0 no injury, 100 complete kill", "protocol": "as §1"}, "wild oats (Avena fatua) [12]": {"test_system": "wild oats (Avena fatua)", "test": "Postemergence herbicidal activity, wild oats", "details": "foliar spray, visual after 2 weeks, 0 no injury, 100 complete kill", "protocol": "as §1"}, "[13]": {"test_system": "crabgrass (Digitaria sanguinalis)", "test": "Preemergence herbicidal activity, crabgrass", "details": "soil spray, visual after 3 weeks, 0 no injury, 100 complete kill or no germination", "protocol": "as §2"}, "[14]": {"test_system": "velvetleaf (Abutilion theophrasti)", "test": "Postemergence herbicidal activity, velvetleaf", "details": "foliar spray, visual after 2 weeks, 0 no injury, 100 complete kill", "protocol": "as §1"}, "[15]": {"test_system": "lambsquarters (Chenopodium album)", "test": "Postemergence herbicidal activity, lambsquarters", "details": "foliar spray, visual after 2 weeks, 0 no injury, 100 complete kill", "protocol": "as §1"}, "[16]": {"test_system": "barnyardgrass (Echinochloa crus-galli)", "test": "Preemergence herbicidal activity, barnyardgrass", "details": "soil spray, visual after 3 weeks, 0 no injury, 100 complete kill or no germination", "protocol": "as §2"}, "[17]": {"test_system": "blackgrass (Alopecurus myosuroides)", "test": "Preemergence herbicidal activity, blackgrass", "details": "soil spray, visual after 3 weeks, 0 no injury, 100 complete kill or no germination", "protocol": "as §2"}, "[18]": {"test_system": "blackgrass (Alopecurus myosuroides)", "test": "Postemergence herbicidal activity, blackgrass", "details": "foliar spray, visual after 2 weeks, 0 no injury, 100 complete kill", "protocol": "as §1"}, "[19]": {"test_system": "giant foxtail (Setaria faberi)", "test": "Preemergence herbicidal activity, giant foxtail", "details": "soil spray, visual after 3 weeks, 0 no injury, 100 complete kill or no germination", "protocol": "as §2"}, "[20]": {"test_system": "cocklebur (Xanthium strumarium)", "test": "Preemergence herbicidal activity, cocklebur", "details": "soil spray, visual after 3 weeks, 0 no injury, 100 complete kill or no germination", "protocol": "as §2"}}}
{"smiles": "COc1sccc1S(=O)(=O)Nc1nc2c(C)cnc(OC)n2n1", "note": "[Compound 9]", "values": [{"measurement": "VIOTR postemergence injury score 0-100", "setting": "viola (Viola tricolor); 62 ppm", "result": 60, "unit": "%"}, {"measurement": "SORBI preemergence injury score 0-100", "setting": "[1]; 70 g/Ha", "result": 50, "unit": "%"}, {"measurement": "AVEFA preemergence injury score 0-100", "setting": "wild oats (Avena fatua) [2]; 70 g/Ha", "result": 30, "unit": "%"}, {"measurement": "STEME postemergence injury score 0-100", "setting": "[3]; 62 ppm", "result": 95, "unit": "%"}, {"measurement": "SETFA postemergence injury score 0-100", "setting": "[4]; 62 ppm", "result": 20, "unit": "%"}, {"measurement": "EPHHL preemergence injury score 0-100", "setting": "[5]; 70 g/Ha", "result": 10, "unit": "%"}, {"measurement": "IPOHE preemergence injury score 0-100", "setting": "[6]; 70 g/Ha", "result": 10, "unit": "%"}, {"measurement": "XANST postemergence injury score 0-100", "setting": "[7]; 62 ppm", "result": 60, "unit": "%"}, {"measurement": "ABUTH preemergence injury score 0-100", "setting": "[8]; 70 g/Ha", "result": 30, "unit": "%"}, {"measurement": "SORBI postemergence injury score 0-100", "setting": "[9]; 62 ppm", "result": 70, "unit": "%"}, {"measurement": "AMARE preemergence injury score 0-100", "setting": "[10]; 70 g/Ha", "result": 40, "unit": "%"}, {"measurement": "IPOHE postemergence injury score 0-100", "setting": "[11]; 62 ppm", "result": 70, "unit": "%"}, {"measurement": "AVEFA postemergence injury score 0-100", "setting": "wild oats (Avena fatua) [12]; 62 ppm", "result": 10, "unit": "%"}, {"measurement": "DIGSA preemergence injury score 0-100", "setting": "[13]; 70 g/Ha", "result": 10, "unit": "%"}, {"measurement": "ABUTH postemergence injury score 0-100", "setting": "[14]; 62 ppm", "result": 70, "unit": "%"}, {"measurement": "CHEAL postemergence injury score 0-100", "setting": "[15]; 62 ppm", "result": 40, "unit": "%"}, {"measurement": "ECHCG preemergence injury score 0-100", "setting": "[16]; 70 g/Ha", "result": 0, "unit": "%"}, {"measurement": "ALOMY preemergence injury score 0-100", "setting": "[17]; 70 g/Ha", "result": 100, "unit": "%"}, {"measurement": "ALOMY postemergence injury score 0-100", "setting": "[18]; 62 ppm", "result": 60, "unit": "%"}, {"measurement": "SETFA preemergence injury score 0-100", "setting": "[19]; 70 g/Ha", "result": 15, "unit": "%"}, {"measurement": "XANST preemergence injury score 0-100", "setting": "[20]; 70 g/Ha", "result": 25, "unit": "%"}]}
{"smiles": "COc1cscc1S(=O)(=O)Nc1nc2c(OC)cnc(OC)n2n1", "note": "[Compound 7, N-(5,8-dimethoxy[1,2,4]triazolo[1,5-c]pyrimidin-2-yl)-4-methoxythiophene-3-sulfonamide]", "values": [{"measurement": "VIOTR postemergence injury score 0-100", "setting": "viola (Viola tricolor); 1.9 ppm", "result": 80, "unit": "%"}, {"measurement": "SORBI preemergence injury score 0-100", "setting": "[1]; 4.4 g/Ha", "result": 100, "unit": "%"}, {"measurement": "AVEFA preemergence injury score 0-100", "setting": "wild oats (Avena fatua) [2]; 4.4 g/Ha", "result": 100, "unit": "%"}, {"measurement": "STEME postemergence injury score 0-100", "setting": "[3]; 1.9 ppm", "result": 98, "unit": "%"}, {"measurement": "SETFA postemergence injury score 0-100", "setting": "[4]; 1.9 ppm", "result": 100, "unit": "%"}, {"measurement": "EPHHL preemergence injury score 0-100", "setting": "[5]; 4.4 g/Ha", "result": 85, "unit": "%"}, {"measurement": "IPOHE preemergence injury score 0-100", "setting": "[6]; 4.4 g/Ha", "result": 85, "unit": "%"}, {"measurement": "XANST postemergence injury score 0-100", "setting": "[7]; 1.9 ppm", "result": 80, "unit": "%"}, {"measurement": "ABUTH preemergence injury score 0-100", "setting": "[8]; 4.4 g/Ha", "result": 95, "unit": "%"}, {"measurement": "SORBI postemergence injury score 0-100", "setting": "[9]; 1.9 ppm", "result": 98, "unit": "%"}, {"measurement": "AMARE preemergence injury score 0-100", "setting": "[10]; 4.4 g/Ha", "result": 95, "unit": "%"}, {"measurement": "IPOHE postemergence injury score 0-100", "setting": "[11]; 1.9 ppm", "result": 80, "unit": "%"}, {"measurement": "AVEFA postemergence injury score 0-100", "setting": "wild oats (Avena fatua) [12]; 1.9 ppm", "result": 98, "unit": "%"}, {"measurement": "DIGSA preemergence injury score 0-100", "setting": "[13]; 4.4 g/Ha", "result": 100, "unit": "%"}, {"measurement": "ABUTH postemergence injury score 0-100", "setting": "[14]; 1.9 ppm", "result": 80, "unit": "%"}, {"measurement": "CHEAL postemergence injury score 0-100", "setting": "[15]; 1.9 ppm", "result": 60, "unit": "%"}, {"measurement": "ECHCG preemergence injury score 0-100", "setting": "[16]; 4.4 g/Ha", "result": 99, "unit": "%"}, {"measurement": "ALOMY preemergence injury score 0-100", "setting": "[17]; 4.4 g/Ha", "result": 100, "unit": "%"}, {"measurement": "ALOMY postemergence injury score 0-100", "setting": "[18]; 1.9 ppm", "result": 98, "unit": "%"}, {"measurement": "SETFA preemergence injury score 0-100", "setting": "[19]; 4.4 g/Ha", "result": 100, "unit": "%"}, {"measurement": "XANST preemergence injury score 0-100", "setting": "[20]; 4.4 g/Ha", "result": 80, "unit": "%"}]}
